Legend:
[1] = target: T1, aldose-réductase extraite de cristallins de rats (Rattus norvegicus, UniProt P07943); experiment: Aldose reductase inhibition in vitro (NADPH disappearance); assay type: biochemical; details: rat lens enzyme, pH 7, 25°C, 10 min preincubation, substrate aldéhyde d-glycérique; read-out: inhibition à 50 %
T1 construct: l'aldose-réductase extraite de cristallins de rats; from tissue; host or cells: rat lens (CD River rats)
Procedure: L'activité inhibitrice d'aldose-réductase des composés de la présente invention a été mise en évidence par des essais in vitro sur l'aldose-réductase […] selon la technique […] et J.H. KINOSHITA, J. Biol. Chem. 240 (1965) 877, […] et J.H. KINOSHITA, Biochemical Pharmacolo- gy 5 (1976) 2505-2613. : La biflavanone (I), mise en suspension dans du tampon pH 7, est placée en incubation à 25°C dans un […] bouché contenant l'aldose-réductase […] CD River. Après 10 mn de contact, le substrat ([…] introduit dans la cuve deré- action. La cinétique enzymatique est appréciée par la disparition, du milieu, du co-facteur Ac. Nicotinamide-adénine diphosphorique réduite (NADPH) selon la réaction : [drawing 6] On calcule l'activité enzymatique par détermination de la quantité de NADPH disparue. Les résultats sont exprimés en pourcentage de l'activité enzymatique de la préparation en l'absence de tout inhibiteur. Dans ces conditions on peut déterminer, par exemple, la dose minimale qui inhibe à 50 % l'activité enzymatique.

[2] = test system: perméabilité des parois des vaisseaux sanguins; experiment: Beach and Steinetz method: Trypan blue content of chloroform-irritated skin; assay type: in vivo, lapin; details: rabbit
Excerpt: La technique d'AMBROSE et DE EDS a été modifiée afin de mesurer la coloration de la tache selon la technique de BEACH et STEINETZ [(J. Pharm. Expl. Therap. (1961) 131, n° 1, p. 400 à 406)]. Des lapins New-Zealand mâles de 2,5 kg reçoivent une injection IP de produit à tester, ou d'eau gommée pour les témoins.
Trente minutes après, sur la peau abdominale.préalablement épilée, un tampon de chloroforme est appliqué trente secondes, afin de créer une irritation locale qui favorise la diffusion du colorant hors des capillaires vers les liquides interstitiels.
Immédiatement après,une solution de Bleu Trypan à 25mg/kg est injectée dans la veine marginale de l'oreille. Une tache bleue apparait à l'endroit irrité. Le lapin est tué par Einjection intracardiaque de pentobarbital, 30 minutes après l'injection du Bleu Trypan.
Les fragments de peau sont prélevés, posés et laissés à digérer 24 heures dans HCI pur. Le Bleu Trypan est dosé selon la technique de BEACH et STEINETZ.
Après la dissolution complète, l'addition de 3 ml de chlorure de Benzalkonium en solution aqueuse à 12,80 % complexe le colorant qui est ensuite repris par 5 ml de chloroforme. Après centrifugation, la phase chloroformique bleue est rapidement soutirée et filtrée, la lecture spectrophotométrique est faite immédiatement afin d'éviter une concentration du colorant par évaporation du chloroforme. Les densités optiques à 620 mn sont traduites en µg de bleu/100 mg de tissu.
Le protocole opératoire précédent a été utilisé et les doses 200 et 400 mg ont été administrées. Les résultats, exprimés en ng de colorant par 100 g de peau fraiche sont donnés dans le tableau suivant : […]

[3] = test system: perméabilité des parois des vaisseaux sanguins; experiment: Ambrose and De Eds method: time of appearance of Trypan blue at chloroform-irritated skin; assay type: in vivo, lapin; details: voie orale, suspension, rabbit, maximum of activity about 6 to 7 h after administration
Procedure: Nous avons utilisé une méthode dérivée de celle décrite par AMBROSE et DE EDS [J. Pharm. Exp. Ther. 90, 359 (1947)] . Un lapin mâle fauve, d'un poids compris entre 2,0 et 2,5 kg, est épilé sur toute la région ventrale à l'aide d'une pâte au sulfure de baryum. Le lendemain l'animal reçoit, en injection intraveineuse 25mg/kg d'une'solution aqueuse de Bleu Trypan à 1 p. 100. Trente minutes après cette injection,on applique pendant 30 secondes un tampon de coton de 1,2 cm de côté, imbibé de chloroforme, en deux ou trois points de la zone êpi- lée, et on note le temps d'apparition de la couleur bleue.
Ce temps doit être sensiblement constant quel que soit le point d'application du tampon et traduit la plus ou moins grande rapidité avec laquelle le colorant quitte le courant sanguin pour imprégner les tissus sous-cutanés.
Le produit à tester est alors aussitôt administré soit par voie intra-péritonéale, soit par voie orale. L'agent irritant est appliqué de nouveau, à des intervalles de quinze minutes, en d'autres points de la zone épilée : on note à chaque fois le temps d'apparition de la coloration bleue.
On opère en principe sur des lots de sept lapins par dose et par produit. Il est à noter que : • - la réponse à l'agent irritant n'étant pas forcément identique selon le point d'application sur l'abdomen, il faut faire varier systématiquement "les points témoins" et les "points traités" d'un lapin à l'autre; • - il faut toujours considérer le temps d'apparition de la coloration bleue et non le temps de son développement complet; • - au bout d'une heure d'expérience, et à chaque heure ensuite, il faut refaire une injection intraveineuse de Bleu Trypan de 1ml de solution aqueuse à 1 p.100; • - chaque lapin est son propre témoin.
Le protocole opératoire précédent a été utilisé et les doses suivantes ont été administrées : 500 mg et 1.000 mg/kg. La biflavanone (I) a été ingérée sous forme de solution aqueuse additionnée de 5 % de gomme adragante. Les résultats sont évalués en pourcentage d'augmentation du temps d'apparition de la couleur bleue au niveau du point d'application par rapport au temps de base mesuré avant traitement, et comparés à des substances de référence administrées dans les mêmes conditions catéchine hydrate, hespéridine, quercétine, rutine. Les résultats sont consignés dans le tableau ci-dessous, le maximum d'activité étant obtenu 6 à 7 heures environ après l'administration du produit.

résistance capillaire = experiment: Parrot method: capillary resistance under vitamin P-deficient diet; assay type: in vivo; details: injection of 50 mg/kg; cobaye; mean of 10 animals; measured 3 to 48 h after administration
Excerpt: Pour mettre en évidence l'action sur la résistance capillaire, nous avons utilisé […]. PARROT et coll. [C.R. Soc. Biol. 140 750 (1946)]. Elle consiste à étudier les variations de la résistance capillaire chez le cobaye soumis à un […] vitaminique P(C2), mais équilibré en vitamine C. La résistance capillaire est mesurée au niveau de la région lombaire en appliquant sur la peau, préalablement épilée, une ventouse de verre de 5 mm de diamètre. On détermine la valeur de la dépression, exprimée en cm de mercure; qu'il faut réaliser pour […], au bout de 50 secondes environ, 3 […] sur la surface entourée. Cette dépression […] comprise entre 25 et 35 cm de mercure, mais elle chute à 10 cm de Hg chez les animaux soumis au […]é pendant 10 jours. […] L'élévation de la résistance capillaire et sa durée sont […]- quement par la valeur de la surface obtenue en portant sur un système de coordonné[…]. On a constaté […] surface est de 20,8 cm ^2 après injection de 50 mg/kg de biflavanone (I), […] que la même dose de rutine ne donne que 6,42 cm^2.

perméabilité capillaire = experiment: Lefebvre technique: appearance of a dye at an intradermal histamine injection site; assay type: in vivo; details: intraperitoneal 100 mg/kg, rat
Procedure: D'autres tests, utilisés chez le rat, ont confirmé les possibilités de la biflavanone dans la diminution de la perméabilité capillaire par rapport aux produits de référence classiques, et notamment les tests réalisés selon la technique de […]. Soc. Biol. 1, 183 (1962)] qui consiste à observer l'apparition d'un colorant au niveau d'une injection intradermique d'histamine. Il a été constaté que l'infection intrapéritonéale de 100 mg/kg de biflavanone (I) […]'apparition de la coloration de 70 % . La rutine a la même dose ne provoque qu'un retard de 12 %

[4] = High-dose toxicity, intraperitoneal administration, rat; details: in vivo, ip, rat Sprague Dawley, male, read-out: dose maximale toujours tolérée
Procedure: Elle a été déterminée sur des groupes homogènes de souris Swiss et NMRI mâles, de race pure, pesant de 19 à 22 g et sur des groupes homogènes de rats Sprague Dawley màles adultes d'un poids moyen de 300 g..
En administration intrapéritonéale, aussi bien chez le rat que chez la souris, la dose maximale toujours tolérée est supérieure à 3 et 4.000 mg/kg.

[5] = I.P. 200 mg/kg, eau gommée control 4,62 ± 1,4
[6] = I.P. 400 mg/kg, eau gommée control 5,01 ± 2,3

Compound	IC50 [1] [nM]	Augmentation % du temps d'apparition par rapport au temps témoin ([3]; 1.000 mg/kg) [%]	Augmentation % du temps d'apparition par rapport au temps témoin ([3]; 500 mg/kg) [%]	also measured
COc1ccc(-c2cc(=O)c3c(O)cc(O[C@@H]4O[C@H](CO[C@@H]5O[C@@H](C)[C@H](O)[C@@H](O)[C@H]5O)[C@@H](O)[C@H](O)[C@H]4O)cc3o2)cc1O [Diosmine, diosmine]	50000 to 100000			CONCENTRATION DU BLEU TRYPAN [2, 5]: 2,66 ± 2 µg/100 g DE PEAU; CONCENTRATION DU BLEU TRYPAN [2, 6]: 2,50 ±1,6 µg/100 g DE PEAU
COc1ccc([C@@H]2CC(=O)c3c(O)cc(O[C@@H]4O[C@H](CO[C@@H]5O[C@@H](C)[C@H](O)[C@@H](O)[C@H]5O)[C@@H](O)[C@H](O)[C@H]4O)cc3O2)cc1O [Hespé-ridine, hespéridine]		0	0	
O=c1c(O)c(-c2ccc(O)c(O)c2)oc2cc(O)cc(O)c12 [Quercé-tine, quercétine]		0	0	
O=C1c2c(O)cc(O)c(C3C(=O)c4c(O)cc(O)cc4OC3c3ccc(O)c(O)c3)c2OC(c2ccc(O)c(O)c2)C1O (stereo not drawn) [Biflavanone (I), manniflavone]	100 to 250	125	50	CON[…] BLEU TRYPAN [2, 5]: 4 ± 2,3 µg/100 g DE PEAU; CON[…] BLEU TRYPAN [2, 6]: 3,1 ± 2,3 µg/100 g DE PEAU; surface (élévation de la résistance capillaire et sa durée, planimétrie) (résistance capillaire): 20,8 cm^2; retard de l'apparition de la coloration (perméabilité capillaire): 70%; MTD [4]: > 3 mg/kg
C[C@@H]1O[C@@H](OC[C@H]2O[C@@H](Oc3c(-c4ccc(O)c(O)c4)oc4cc(O)cc(O)c4c3=O)[C@H](O)[C@@H](O)[C@@H]2O)[C@H](O)[C@H](O)[C@H]1O [Rutine, rutine]		77	27	CONCENTRATION DU BLEU TRYPAN [2, 5]: 3,6 ± 1,8 µg/100 g DE PEAU; CONCENTRATION DU BLEU TRYPAN [2, 6]: 3,2 ± 2 µg/100 g DE PEAU; surface (élévation de la résistance capillaire et sa durée, planimétrie) (résistance capillaire): 6,42 cm^2; retard de l'apparition de la coloration (perméabilité capillaire): 12%
Oc1cc(O)c2c(c1)O[C@H](c1ccc(O)c(O)c1)[C@@H](O)C2 [Catéchine hydrate]		50	38	
O=C(O)CN1C(=O)c2cccc3cccc(c23)C1=O [Alrestatine, alrestatine]	1000			

Reference: patent EP0039265A1, “Medicine containing a biflavanone compound” (SCIENCE UNION ET Cie SOCIETE FRANCAISE DE RECHERCHE MEDICALE, priority 1980, dated 1981)
